Source: patent US20250144067A1, “PERSONALIZED STARVATION THERAPY FOR CANCER” (Faeth Therapeutics, Inc., priority 2021, published 2025)
Structures can show the parent of a compound that is named as a salt. Where two headings read alike, the source gives them in different places.

Legend:
[1] = test system: NCI-H292 lung cancer cells; test: FDA drug screening, complete media vs cholesterol-free media with simvastatin (TABLE 2); assay type: cell-based, human
[2] = test system: NCI-H292 lung cancer cells; test: FDA drug screening, complete media vs cholesterol-free media without statin (TABLE 1); assay type: cell-based, human
[3] = NCI-H292 cells, FDA drug library screen, cholesterol-free media with simvastatin 0.04 μM
[4] = NCI-H292 cells, FDA drug library screen, complete media
[5] = complete media vs cholesterol-free media + simvastatin (0.04 μM), >0 enhanced anti-cancer activity, about 0 neutral, <0 antagonist
[6] = Complete minus Cholesterol-free, >0 enhanced anti-cancer activity, about 0 neutral, <0 antagonist
[7] = NCI-H292 cells, cholesterol-free media without statin, FDA drug library screen
[8] = NCI-H292 cells, complete media, FDA drug library screen
[9] = NCI-H292 cells, cholesterol-free media with simvastatin 0.04 μM, cell growth value in FDA drug screen
[10] = NCI-H292 cells, complete media, cell growth value in FDA drug screen
[11] = complete media minus cholesterol-free media + simvastatin, >0 enhanced anti-cancer activity, about 0 neutral, <0 antagonist
[12] = complete vs cholesterol-free media, >0 enhanced anti-cancer activity, about 0 neutral, <0 antagonist
[13] = complete media minus cholesterol-free media + simvastatin, […]
[14] = Complete minus Cholesterol-free, […]
[15] = NCI-H292 cells, cholesterol-free media without statin
[16] = NCI-H292 cells, cholesterol-free media with simvastatin 0.04 μM, FDA drug library screen (TABLE 2)
[17] = NCI-H292 cells, complete media, FDA drug library screen (TABLE 2)
[18] = complete media minus cholesterol-free media + simvastatin (0.04 μM), >0 enhanced anti-cancer activity, about 0 neutral, <0 antagonist
[19] = NCI-H292 cells, FDA library drug in cholesterol-free media with simvastatin 0.04 μM
[20] = NCI-H292 cells, FDA library drug in complete media
[21] = complete media vs cholesterol-free media + simvastatin (0.04 μM), […]
[22] = NCI-H292 cells, FDA drug library screen, cholesterol-free media without statin
[23] = complete vs cholesterol-free media, greater than 0 enhanced anti-cancer activity, about 0 neutral, below 0 antagonists
[24] = NCI-H292 cells, drug in cholesterol-free media with simvastatin 0.04 μM
[25] = NCI-H292 cells, drug in complete media

In the case of COc1cc(NCc2ccc3nc(N)nc(N)c3c2C)cc(OC)c1OC [Trimetrexate], the “Cholesterol-free media + simvastatin (0.04 μM)” value [1, 3] was 0.2201, the “Complete Media” value [1, 4] was 0.1203 and the Difference [1, 5] was −0.10. It also gave a Difference [2, 6] of −0.04, a Cholesterol-free [2, 7] of 0.1317 and a Complete [2, 8] of 0.09583.

With Cc1c(C(=O)Nc2ccc(N3C[C@@H](C)O[C@@H](C)C3)nc2)cccc1-c1ccc(OC(F)(F)F)cc1 [Sonidegib] the “Cholesterol-free media + simvastatin (0.04 μM)” value [1, 9] was 1.12, the “Complete Media” value [1, 10] was 1.188 and the Difference [1, 11] was 0.07. For the same compound, the Cholesterol-free [2, 7] was 0.6523, the Complete [2, 8] was 0.8188 and the Difference [2, 12] was 0.17.

Chondroitin (sulfate) was tested, and the “Cholesterol-free media + simvastatin (0.04 μM)” value ([1]; NCI-H292 cells, cholesterol-free media with simvastatin 0.04 μM, […]) was 1.097, the “Complete Media” value ([1]; NCI-H292 cells, complete media, […]) was 1.158 and the Difference [1, 13] was 0.06. The Difference [2, 14] was −0.48, the Cholesterol-free ([2]; NCI-H292 cells in cholesterol-free media without statin) was 1.247 and the Complete ([2]; NCI-H292 cells in complete media) was 0.7715.

For O=C(O)c1cc2ccccc2c(Cc2c(O)c(C(=O)O)cc3ccccc23)c1O.OCCOCCN1CCN(C(c2ccccc2)c2ccc(Cl)cc2)CC1 [Hydroxyzine (pamoate)], the “Cholesterol-free media + simvastatin (0.04 μM)” value [1, 3] was 1.16, the “Complete Media” value [1, 4] was 1.053 and the Difference [1, 5] was −0.11. It also gave a Cholesterol-free [2, 7] of 0.6403, a Complete [2, 8] of 0.9622 and a Difference [2, 12] of 0.32.

For Cc1cccc(C)c1OCC(C)N (stereo not drawn) [Mexiletine (hydrochloride)], the “Cholesterol-free media + simvastatin (0.04 μM)” value [1, 3] was 1.005, the “Complete Media” value [1, 4] was 0.8858 and the Difference [1, 5] was −0.12. It also gave a Difference [2, 6] of −0.20, a Cholesterol-free [2, 15] of 1.086 and a Complete ([2]; NCI-H292 cells, complete media) of 0.8848.

In the case of CO[C@H]1C[C@@H]2CC[C@@H](C)[C@@](O)(O2)C(=O)C(=O)N2CCCC[C@H]2C(=O)O[C@H]([C@H](C)C[C@@H]2CC[C@@H](OC(=O)C(C)(CO)CO)[C@H](OC)C2)CC(=O)[C@H](C)/C=C(\C)[C@@H](O)[C@@H](OC)C(=O)[C@H](C)C[C@H](C)/C=C/C=C/C=C/1C [Temsirolimus], the “Cholesterol-free media + simvastatin (0.04 μM)” value [1, 9] was 0.4472, the “Complete Media” value [1, 10] was 0.5571 and the Difference [1, 11] was 0.11. The Difference [2, 6] was −0.06, the Cholesterol-free [2, 7] was 0.4176 and the Complete [2, 8] was 0.3544.

In the case of NCCc1c[nH]cn1 [Histamine], the “Cholesterol-free media + simvastatin (0.04 μM)” value [1, 3] was 1.15, the “Complete Media” value [1, 4] was 1.573 and the Difference [1, 11] was 0.42. The Difference [2, 6] was 0.05, the Cholesterol-free [2, 7] was 0.9318 and the Complete [2, 8] was 0.9813.

In the case of O=C1[C@@H]2[C@H]3CC[C@H](C3)[C@@H]2C(=O)N1CCCCN1CCN(c2ncccn2)CC1 [Tandospirone], the “Cholesterol-free media + simvastatin (0.04 μM)” value [1, 16] was 0.8591, the “Complete Media” value [1, 17] was 0.8479 and the Difference [1, 18] was −0.01. The Difference [2, 6] was −0.26, the Cholesterol-free [2, 15] was 1.451 and the Complete ([2]; NCI-H292 cells, complete media) was 1.192.

CO/N=C(\C(=O)N[C@@H]1C(=O)N2C(C(=O)[O-])=C(C[n+]3ccn4ncccc43)CS[C@H]12)c1nsc(N)n1 [Cefozopran (hydrochloride)] was tested, and the “Cholesterol-free media + simvastatin (0.04 μM)” value [1, 19] was 1.89, the “Complete Media” value [1, 20] was 1.537 and the Difference [1, 5] was −0.35. The Difference [2, 6] was −0.04, the Cholesterol-free [2, 7] was 1.014 and the Complete [2, 8] was 0.9759.

For C=C(c1ccc(C(=O)O)cc1)c1cc2c(cc1C)C(C)(C)CCC2(C)C [Bexarotene], the “Cholesterol-free media + simvastatin (0.04 μM)” value [1, 3] was 1.087, the “Complete Media” value [1, 4] was 0.9865 and the Difference [1, 5] was −0.10. It also gave a Difference [2, 6] of −0.22, a Cholesterol-free [2, 15] of 1.341 and a Complete ([2]; NCI-H292 cells, complete media) of 1.124.

In the case of Nc1ccc(C(=O)O)c(O)c1 [4-Aminosalicylic acid], the “Cholesterol-free media + simvastatin (0.04 μM)” value [1, 3] was 1.199, the “Complete Media” value [1, 4] was 1.112 and the Difference [1, 21] was −0.09. The Difference [2, 14] was −0.16, the Cholesterol-free [2, 22] was 1.094 and the Complete [2, 4] was 0.9375.

With CO[C@H]1C[C@H](O[C@@H]2/C(C)=C/C[C@@H]3C[C@@H](C[C@]4(CC[C@H](C)[C@@H](C5CCCCC5)O4)O3)OC(=O)[C@@H]3C=C(C)/C(=N/O)[C@H]4OC/C(=C\C=C\[C@@H]2C)[C@]43O)O[C@@H](C)[C@@H]1O [Selamectin] the “Cholesterol-free media + simvastatin (0.04 μM)” value [1] was 0.0107, the “Complete Media” value [1] was 0.03346 and the Difference [1] was 0.02. It also gave a Cholesterol-free [2] of −0.000828, a Complete [2] of −0.0121 and a Difference [2] of −0.01.

With CCCC(=O)OC[C@@H](OC(=O)CCC)[C@@H](OC(=O)CCC)[C@H](Cn1c2nc(=O)[nH]c(=O)c-2nc2cc(C)c(C)cc21)OC(=O)CCC [Riboflavin Tetrabutyrate] the “Cholesterol-free media + simvastatin (0.04 μM)” value [1, 3] was 1.163, the “Complete Media” value [1, 4] was 1.747 and the Difference [1, 13] was 0.58. The Difference [2, 14] was 0.07, the Cholesterol-free [2, 7] was 0.7766 and the Complete [2, 8] was 0.8432.

C=CCc1ccc(O)c(OC)c1 [Eugenol] was tested, and the “Cholesterol-free media + simvastatin (0.04 μM)” value [1, 3] was 0.8347, the “Complete Media” value [1, 4] was 1.009 and the Difference [1, 11] was 0.17. For the same compound, the Cholesterol-free [2, 15] was 1.418, the Complete ([2]; NCI-H292 cells, complete media) was 1.048 and the Difference [2, 23] was −0.37.

With CS(=O)(=O)c1cc(F)cc2c3c(n(Cc4ccc(Cl)cc4)c12)[C@@H](CC(=O)O)CC3 [Laropiprant] the “Cholesterol-free media + simvastatin (0.04 μM)” value [1] was 0.8957, the “Complete Media” value [1] was 1.455 and the Difference [1] was 0.56. The Cholesterol-free [2] was 1.338, the Complete [2] was 1.092 and the Difference [2] was −0.25.

O=S(=O)([O-])c1cc(O)ccc1O.O=S(=O)([O-])c1cc(O)ccc1O.[Ca+2] [Calcium dobesilate] was tested, and the “Cholesterol-free media + simvastatin (0.04 μM)” value [1, 24] was 1.427, the “Complete Media” value [1, 25] was 1.218 and the Difference [1, 21] was −0.21. The Cholesterol-free [2, 7] was 1.325, the Complete [2, 8] was 1.418 and the Difference ([2]; complete vs cholesterol-free media, […]) was 0.09.

O=C(O)C(c1ccccc1)(c1ccccc1)c1ccccc1.OCc1cc([C@@H](O)CNCCCCCCOCCOCc2c(Cl)cccc2Cl)ccc1O [Vilanterol (trifenatate)] was tested, and the “Cholesterol-free media + simvastatin (0.04 μM)” value [1, 16] was 0.9213, the “Complete Media” value [1, 17] was 0.9369 and the Difference [1, 18] was 0.02. For the same compound, the Cholesterol-free [2, 15] was 1.453, the Complete ([2]; NCI-H292 cells, complete media) was 1.047 and the Difference [2, 23] was −0.41.

CO[C@H]1C[C@@H]2CC[C@@H](C)[C@@](O)(O2)C(=O)C(=O)N2CCCC[C@H]2C(=O)O[C@H]([C@H](C)C[C@@H]2CC[C@@H](O)[C@H](OC)C2)CC(=O)[C@H](C)/C=C(\C)[C@@H](O)[C@@H](OC)C(=O)[C@H](C)C[C@H](C)/C=C/C=C/C=C/1C [Rapamycin] was tested, and the “Cholesterol-free media + simvastatin (0.04 μM)” value [1, 19] was 1.159, the “Complete Media” value [1, 20] was 0.8704 and the Difference [1, 5] was −0.29. For the same compound, the Difference ([2]; Complete minus Cholesterol-free, greater than 0 enhanced anti-cancer activity, about 0 neutral, below 0 antagonist) was −0.13, the Cholesterol-free [2, 22] was 0.3515 and the Complete [2, 4] was 0.2187.

With C=CCCCCCCCCC(=O)O [10-Undecenoic acid] the “Cholesterol-free media + simvastatin (0.04 μM)” value [1, 19] was 1.07, the “Complete Media” value [1, 20] was 0.7648 and the Difference [1, 5] was −0.30. The Difference [2, 6] was 0.01, the Cholesterol-free [2, 7] was 0.9796 and the Complete [2, 8] was 0.99.

For O=C(O)COCCN1CCN([C@H](c2ccccc2)c2ccc(Cl)cc2)CC1 [Levocetirizine (dihydrochloride)], the “Cholesterol-free media + simvastatin (0.04 μM)” value [1, 24] was 1.115, the “Complete Media” value [1, 25] was 0.8515 and the Difference [1, 5] was −0.26. It also gave a Difference [2, 6] of 0.02, a Cholesterol-free [2, 7] of 0.8691 and a Complete [2, 8] of 0.8901.

For O=c1c(-c2ccc(O)cc2)coc2cc(O[C@@H]3O[C@H](CO)[C@@H](O)[C@H](O)[C@H]3O)ccc12 [Daidzin], the “Cholesterol-free media + simvastatin (0.04 μM)” value [1, 24] was 1.011, the “Complete Media” value [1, 25] was 0.8061 and the Difference [1, 21] was −0.20. It also gave a Difference [2, 14] of −0.25, a Cholesterol-free [2, 15] of 1.084 and a Complete ([2]; NCI-H292 cells, complete media) of 0.8381.
